Holding throughout (test): NCI tumour cell line growth inhibition, 48 h
The subject of experiment [1] is K-562 leukemia.
Experiment [2] has as its system MDA-MB-435.
In experiment [3] the test system is SW-620 colon.
Experiment [4] concerns OVCAR-4 ovarian.
Experiment [5] has as its system UACC-257 melanoma.
Experiment [6] deals with KM12 colon.
For experiment [7], the system named is SK-MEL-5 melanoma.
Experiment [8] has as its system SK-MEL-2 melanoma.
In experiment [9] the test system is KM20L2 colon.

We go through twelve compounds from PubChem BioAssay (NCI).

Structures are written as SMILES.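 All cell lines were grown in 96-well plates and treated with compound for 48 hours. GI50 = concentration required for 50% inhibition of growth. At the TGI there is no net growth.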

On to `COc1cc2c(cc1Nc1nc(Nc3cccc(F)c3C(N)=O)c3cc[nH]c3n1)N(C(=O)CN1CCN(C(C)C)CC1)CC2`, for which the GI50 in [1] was 4.67 µM; in experiment [2], 3.12 µM; in experiment [3] it was 2.81 µM; in experiment [4], 3.88 µM; in experiment [5], 2.98 µM; in [6], 3.82 µM. Moreover, the values for the GI50 in experiment [7] and in experiment [8] were 1.26 µM and 3.3 µM, respectively. Besides, the TGI in experiment [1] amounted to 11 µM; in experiment [2], 6.98 µM; in experiment [3], 5.96 µM; in experiment [4] it was 7.94 µM; in experiment [5] it was 6.3 µM; in experiment [6], 7.31 µM. In addition, the TGI in experiment [7] was determined as 2.56 µM; in experiment [8], 6.95 µM.
With `O=c1ssc(Cl)c1Cl`, the TGI was 9.04 µM in [1]; greater than 10 µM in experiment [2]; greater than 8.11 µM in [3]; greater than 10 µM in experiment [4]; greater than 10 µM in experiment [5]; greater than 10 µM in [6]. For the same compound, the TGI in experiment [7] and in experiment [8] was greater than 10 µM each time.
For the compound `CC(=O)Nc1ccc(COC(O)CN2CCCCC2)cc1[N+](=O)[O-]` (stereo not drawn), the TGI in [1], in experiment [2], in [3], in experiment [4], in [5] and in experiment [6] was greater than 100 µM each time. Moreover, the TGI in [7] and in experiment [8] was greater than 100 µM each time.
On to `Cc1cc(C(C)(C)C)cc(CNC2CCCCC2)c1O`, for which the TGI in [1] worked out at 51.3 µM; in [2] it was 43.4 µM; in [3], 40.4 µM; in [4], 51.5 µM; in [5], 28.4 µM; in experiment [6] it was 46.3 µM. Further, the TGI in experiment [7] came to 30.9 µM; in [8], 34 µM.
For the compound `CC(=O)N1N=C2/C(=C/c3ccc(Cl)cc3)CC(C)CC2C1c1ccc(Cl)cc1` (stereo not drawn), the GI50 was 13.8 µM in [1]; 30.9 µM in experiment [2]; 19.3 µM in experiment [3]; 27.9 µM in experiment [4]; 19.9 µM in experiment [5]; 21.4 µM in experiment [6]. Further, the GI50 in experiment [7] was 12.2 µM; in experiment [8], 17.4 µM. The TGI is 65.8 µM in experiment [1]; greater than 100 µM in [2]; 57.7 µM in experiment [3]; greater than 100 µM in [4]; 56.1 µM in experiment [5]; 67.1 µM in [6]. The TGI in experiment [7] turned out to be 25 µM; in experiment [8] it was 36.7 µM.
With `O=C1c2cc([N+](=O)[O-])ccc2-c2ccc3c4ccc5c6c(ccc(c7ccc1c2c73)c64)C(=O)c1cc([N+](=O)[O-])ccc1-5`, the TGI in experiment [1], in [2], in experiment [3], in experiment [4], in experiment [5] and in [6] was greater than 100 µM each time. Also, the TGI in experiment [7] and in experiment [8] was greater than 100 µM throughout.
Take `CN(Cc1cc(Cl)cc(Cl)c1O)Cc1c(O)ccc2ccccc12`: the TGI was 61 µM in [1]; 41.4 µM in experiment [2]; greater than 100 µM in experiment [3]; 38.9 µM in experiment [4]; 34.6 µM in [5]; 42.8 µM in experiment [6]. Besides, the TGI in experiment [7] amounted to 32 µM; in experiment [8], 35.8 µM.
Consider `CCN(CC)C1CCC(Nc2c(C(C)=O)cnc3ccc(-c4ccc(O)c(Cl)c4)cc23)CC1` (stereo not drawn), for which the GI50 is 0.125 µM in experiment [1]; 0.651 µM in experiment [2]; 0.933 µM in experiment [3]; 0.77 µM in experiment [4]; 2.77 µM in experiment [5]; 0.432 µM in experiment [6]. Further, the GI50 is 0.782 µM in experiment [7] and 4.15 µM in [8]. Moreover, the TGI came to 5.72 µM in experiment [1]; 10.5 µM in experiment [2]; 4.38 µM in experiment [3]; 13.6 µM in experiment [4]; 18.3 µM in experiment [5]; 4.28 µM in [6]. Moreover, the TGI in experiment [7] amounted to 4.55 µM; in [8] it was 28.2 µM.
With `COc1ccc(Nc2cc(C)nc(NCCCNc3ccnc4cc(Cl)ccc34)n2)cc1`, the GI50 was 0.495 µM in [1]; 1.35 µM in experiment [2]; 1.61 µM in experiment [3]; 1.44 µM in [4]; 1.84 µM in experiment [5]; 1.88 µM in experiment [6]. Besides, the GI50 in [7] is 1.4 µM; in experiment [8], 2.19 µM. The TGI was determined as 2.28 µM in [1]; 2.64 µM in experiment [2]; 3.51 µM in experiment [3]; 4.86 µM in [4]; 3.51 µM in [5]; 3.58 µM in experiment [6]. Further, the TGI in experiment [7] was determined as 2.76 µM; in experiment [8] it was 3.76 µM.
On to `NNC(=O)N/N=C1\C(=O)N(c2ccc(Cl)c(Cl)c2)C(=O)C(=O)C1c1nc2ccccc2s1` (stereo not drawn), for which the TGI in experiment [3], in [4], in [5], in experiment [6], in experiment [7] and in experiment [8] was greater than 100 µM each time. In experiment [9], this compound had a TGI greater than 100 µM.
`CC(=O)OC1CC2C3CCC4C[C@@H](NC(=O)C=C(C)C)CC[C@]4(C)C3CC[C@]2(C)[C@H]1C(C)N(C)C` (stereo partly drawn): the GI50 is 0.509 µM in [1]; 2.17 µM in experiment [2]; 1.65 µM in [3]; 2.82 µM in experiment [4]; 2.18 µM in experiment [5]; 2.55 µM in experiment [6]. In addition, the GI50 was 1.37 µM in [7] and 2.31 µM in [8]. The TGI in experiment [1] was determined as 2.22 µM; in experiment [2], 4.82 µM; in [3], 3.47 µM; in experiment [4] it was 17.5 µM; in experiment [5] it was 4.5 µM; in experiment [6], 10.4 µM. Moreover, the TGI in [7] is 2.71 µM; in [8] it was 4.58 µM.
As for `NC(N)=N/N=C/c1ccc(-c2ccc(-c3cc(Cl)cc(Cl)c3)s2)cc1`, the GI50 in [1] was 0.431 µM; in [2] it was 1.65 µM; in experiment [3], 1.66 µM; in experiment [4] it was 1.9 µM; in [5], 1.94 µM; in experiment [6], 1.87 µM. In addition, the GI50 in experiment [7] was 2.79 µM; in experiment [8] it was 2.08 µM. Also, the TGI in experiment [1] is 1.79 µM; in experiment [2], 3.28 µM; in experiment [3], 3.34 µM; in experiment [4], 3.77 µM; in experiment [5] it was 4.22 µM; in experiment [6], 3.56 µM. Moreover, the TGI in experiment [7] was 7.85 µM; in [8], 4.77 µM.
